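Following 48 hours of exposure in 96-well plates, responses at five concentrations were used to interpolate endpoints linearly. GI50: concentration for 50% inhibition of growth.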 Active and inactive are the calls of the source. Rule as the data show it: active = GI50 up to about 1.1 µM and inactive = higher.
Columns and labels:
Experiment in all cases: inhibition of tumour cell growth, NCI panel, 48 h
DU-145 = tested on: DU-145
T47D = tested on: T47D
MDA-MB-231 = tested on: MDA-MB-231
Hs-578T = tested on: Hs-578T
M19-MEL = tested on: M19-MEL
LXFL 529 = tested on: LXFL 529
KM-20L2 = tested on: KM-20L2
DMS-273 = tested on: DMS-273
RXF 631 = tested on: RXF 631

SMILES | GI50 (DU-145) | GI50 (T47D) | GI50 (MDA-MB-231) | GI50 (Hs-578T) | GI50 (M19-MEL) | GI50 (LXFL 529) | GI50 (KM-20L2) | GI50 (DMS-273) | GI50 (RXF 631)
COc1cc2c(cc1OC)C1(COc3cc(O)c(O)c(O)c3C1=O)C2 (stereo not given) | > 50 µM (inactive) | 5.11 µM (inactive) | > 50 µM (inactive) | 16.4 µM (inactive) |  |  |  |  | 
O=C(Cc1ccccc1)N/N=C(/c1nc2ccc([N+](=O)[O-])cc2nc1O)C(O)c1ccccc1Cl (stereo not given) |  |  |  |  | > 100 µM (inactive) | 69.7 µM (inactive) |  |  | 
CCOC(=O)CCC1(C(=O)OCC)CCCCC1=O (stereo not given) |  |  |  |  | > 100 µM (inactive) | > 100 µM (inactive) | > 100 µM (inactive) | > 100 µM (inactive) | 
C#CCN(Cc1ccc2nc(-c3ccccc3)c(Cl)nc2c1)c1ccc(F)cc1 | 95.7 µM (inactive) | 38 µM (inactive) | > 100 µM (inactive) | > 100 µM (inactive) |  |  |  |  | 
CC(C)C(=O)Cc1ccc2ccccc2n1 | > 100 µM (inactive) | > 100 µM (inactive) | > 100 µM (inactive) | > 100 µM (inactive) |  |  |  |  | 
CCOC(=O)Cc1cc(OC)c(OC)cc1/C(Cl)=C(\CO)c1ccc(OC)c(OC)c1 |  |  |  |  | > 100 µM (inactive) |  | > 100 µM (inactive) | > 100 µM (inactive) | > 100 µM (inactive)
NC(=O)OCC(COc1ccc(Cl)cc1)OC(=O)c1cc([N+](=O)[O-])cc([N+](=O)[O-])c1 (stereo not given) |  |  |  |  |  | > 100 µM (inactive) | > 100 µM (inactive) | > 100 µM (inactive) | > 100 µM (inactive)
O=C(Nc1ccc(Cl)c(Cl)c1)C(=O)C(C(=O)c1ccccc1F)C1OC(=O)c2ccccc21 (stereo not given) |  |  |  |  | 14.6 µM (inactive) | 17.6 µM (inactive) | 23.6 µM (inactive) | 13.2 µM (inactive) | 
O=c1c2cc(I)ccc2nc(-c2cccs2)n1O | 27.7 µM (inactive) | 26.2 µM (inactive) |  |  |  |  |  |  | 
CC1CC(c2ccccc2)=Nc2ccccc2S1 (stereo not given) |  |  |  |  | 97.3 µM (inactive) | > 100 µM (inactive) | > 100 µM (inactive) | > 100 µM (inactive) | > 100 µM (inactive)
CC(O)(P(=O)(O)O)P(=O)(O)OCC(O)CN1CCOCC1 (stereo not given) | > 100 µM (inactive) |  | > 100 µM (inactive) | > 100 µM (inactive) |  |  |  |  | 
CC(C)C1=C(O)C(=O)C2=C(C1=O)C(OC=O)C(O)C1C(C)(C)CCCC21C (stereo not given) | 5.06 µM (inactive) | 8.24 µM (inactive) | 5.79 µM (inactive) | 8.51 µM (inactive) |  |  |  |  | 
O=C1C(Cl)C2(CC(/C=C/c3cccs3)=NN2c2cccc(S(=O)(=O)O)c2)N1c1nc2ccccc2s1 (stereo not given) | 21.6 µM (inactive) | 13.6 µM (inactive) | > 100 µM (inactive) | > 100 µM (inactive) |  |  |  |  | 
COc1ccc2c(c1)OC(c1ccccc1O)CC2=O (stereo not given) |  |  |  |  |  | 21.7 µM (inactive) | > 100 µM (inactive) |  | 
O=c1cc(O)c1=O | > 100 µM (inactive) | > 100 µM (inactive) | > 10 µM (inactive) | > 100 µM (inactive) |  |  |  |  | 
NCC(Cl)C(O)c1c[nH]c(N)n1 (stereo not given) |  |  |  |  | 2.52 µM (inactive) |  | 0.596 µM (active) | 2.05 µM (inactive) | 
COc1cc(C(C)c2cc3c(cc2OCCOCCOc2cc4c(cc2C(C)c2cc(OC)c(OC)c(OC)c2)OCO4)OCO3)cc(OC)c1OC (stereo not given) |  |  |  |  | > 10 µM (inactive) | > 10 µM (inactive) | > 10 µM (inactive) | > 10 µM (inactive) | > 10 µM (inactive)
COC1=CC(=O)[C@@]2(C)C(C)[C@H](c3ccccc3)[C@H]2C1=O (stereo not given in full) |  |  |  |  | > 100 µM (inactive) | > 100 µM (inactive) | > 100 µM (inactive) | > 100 µM (inactive) | > 100 µM (inactive)
S=C=NCCc1ccccc1 [PHENETHYLISOTHIOCYANATE] |  |  |  |  | 0.753 µM (active) | 0.212 µM (active) | 0.729 µM (active) | 0.255 µM (active) | 
O=C(NC(Cc1ccc(Cl)cc1)C(=O)O)c1ccc(I)cc1 (stereo not given) |  |  |  |  | > 100 µM (inactive) |  |  | > 100 µM (inactive) | 
ON(Cc1ccccc1)C(=S)c1ccccc1 | 7.38 µM (inactive) | 5.9 µM (inactive) | 21.4 µM (inactive) | > 100 µM (inactive) | 6.58 µM (inactive) | 1.66 µM (inactive) | 4.41 µM (inactive) | 2.62 µM (inactive) | 5.38 µM (inactive)

SMILES | GI50 (DU-145) | GI50 (T47D) | GI50 (MDA-MB-231) | GI50 (Hs-578T) | GI50 (M19-MEL) | GI50 (LXFL 529) | GI50 (KM-20L2) | GI50 (DMS-273) | GI50 (RXF 631)
CCc1ncc(C(C)(O)c2ccccc2)n1Cc1ccccc1 (stereo not given) | > 100 µM (inactive) | 73.6 µM (inactive) | 29.3 µM (inactive) | 33.4 µM (inactive) |  |  |  |  | 
COc1ccc(-c2cs/c(=N\c3ccccc3)n2CCCN(C)C)cc1 |  |  | 44.2 µM (inactive) |  |  |  |  |  | 
CN(C)CCCNC(=S)S | > 100 µM (inactive) |  | > 100 µM (inactive) | > 100 µM (inactive) |  |  |  |  | 
C=CCCON(C(=O)OC(C)(C)C)c1ccccc1 | > 100 µM (inactive) | 95.1 µM (inactive) | > 100 µM (inactive) | > 100 µM (inactive) |  |  |  |  | 
COc1ccc(NC(=O)C(=O)NNC(=O)c2sc(NNC(C)=O)nc2C)c([N+](=O)[O-])c1 |  |  |  |  | > 100 µM (inactive) | 34.8 µM (inactive) | > 100 µM (inactive) | > 100 µM (inactive) | 
N=c1n(C(=O)N2CCCC2)c2cc(Cl)ccc2n1C1=NCCN1 | 50 µM (inactive) | 24.2 µM (inactive) | 67.9 µM (inactive) | > 100 µM (inactive) |  |  |  |  | 
O=c1oc2ccc(-n3c(=O)c4ccccc4c4ccccc4c3=O)cc2c2ccccc12 |  | > 100 µM (inactive) | > 100 µM (inactive) | 27 µM (inactive) |  |  |  |  | 
C=CCNC(=O)N(CCC)CCCC(NC(C)=O)C(=O)NCc1ccccc1 (stereo not given) |  |  |  |  | > 100 µM (inactive) | > 100 µM (inactive) | > 100 µM (inactive) | > 100 µM (inactive) | > 100 µM (inactive)
COc1cccc(C2c3cc4c(cc3OC(N3CCOCC3)C2C)OCO4)c1 (stereo not given) | 31.8 µM (inactive) | 27.5 µM (inactive) | 35.1 µM (inactive) | 13.9 µM (inactive) |  |  |  |  | 
COc1cc(C2c3cc4c(cc3[C@@H](Nc3cccc(CO)c3)C3COC(=O)[C@H]23)OCO4)cc(OC)c1O (stereo not given in full) |  |  |  |  | 0.871 µM (active) |  | 0.766 µM (active) | 0.153 µM (active) | 
Brc1cc(CCOC2CCCCO2)c(-c2sccc2CCOC2CCCCO2)s1 (stereo not given) | > 100 µM (inactive) | > 100 µM (inactive) | > 100 µM (inactive) | 13.9 µM (inactive) |  |  |  |  | 
Cc1cc(C)nc(NS(=O)(=O)c2ccc(NC(=O)c3cccc4c(Nc5ccc(S(=O)(=O)Nc6cc(C)on6)cc5)c5ccccc5nc34)cc2)n1 |  |  |  |  | 26 µM (inactive) | 16.1 µM (inactive) |  |  | 
COc1nc(N=P(c2ccccc2)(c2ccccc2)c2ccccc2)cc(=O)n1C | > 100 µM (inactive) | > 100 µM (inactive) | > 100 µM (inactive) | > 100 µM (inactive) |  |  |  |  | 
CCOC(=O)c1sc2nc(SC)nc(N3CCCCC3)c2c1N | > 100 µM (inactive) | > 100 µM (inactive) | > 100 µM (inactive) | > 100 µM (inactive) |  |  |  |  | 
CC1=CC(=O)CC2(C)CCC(C(C)CC(=O)CC(C)C)CC12 (stereo not given) | 62.4 µM (inactive) |  | 42.8 µM (inactive) | > 100 µM (inactive) |  |  |  |  | 
CCN(CC)CCO[Si](OCCN(CC)CC)(OCCN(CC)CC)OCCN(CC)CC |  |  |  |  | > 100 µM (inactive) |  | > 100 µM (inactive) | > 100 µM (inactive) | > 100 µM (inactive)
Nc1ncnc2c1ncn2C1C(O)C=C(CO)C1O (stereo not given) |  |  |  |  | > 625 µM (inactive) |  | > 625 µM (inactive) | > 625 µM (inactive) | 
CC1(Br)S(=O)(=O)OCCOS1(=O)=O |  |  |  |  | > 100 µM (inactive) | > 100 µM (inactive) | > 100 µM (inactive) | > 100 µM (inactive) | 
CCCCCCCc1cscc1-c1cscc1Br | 48.4 µM (inactive) | 24.2 µM (inactive) | 52.2 µM (inactive) |  |  |  |  |  | 
COC(=O)N[C@H](C(=O)NC(OCc1ccccc1)C1COC(C)(C)O1)C(C)O[Si](C)(C)C(C)(C)C (stereo not given in full) | > 100 µM (inactive) | > 100 µM (inactive) |  | > 100 µM (inactive) |  |  |  |  | 
OC1(c2ccc(Cl)cc2)c2ccc3ccccc3c2C2=N[C@H]3CCCC[C@@H]3N21 (stereo not given in full) | 3.39 µM (inactive) | 3.13 µM (inactive) | 18 µM (inactive) | 1.19 µM (inactive) |  |  |  |  | 

Reference: ChEMBL document CHEMBL1201862, “PubChem BioAssay data set” (2004)
